# Results reported in patent US10562912B2 (C&C Research Laboratories, priority 2013, dated 2020).
# Columns and labels:
# Type in all cases: cell-based
# STAT3 = target: T1, STAT3 (Homo sapiens, UniProt P40763); test: STAT3 reporter gene assay (luciferase), LNCaP stable cell line (pSTAT3-TA-luc), IL-6 stimulation
# T1 construct: plasmid pSTAT3-TA-luc), which contains a stably operating STAT3 promoter; endogenous in cells
# In short: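 Cytotoxicity was run on a duplicate plate with CellTiter-Glo, while the other plate gave luciferase read-outs from lysed LNCaP pSTAT3-TA-luc reporter cells. Cells were treated with graded compound concentrations plus IL-6 (10 ng/mL final) for 24–48 h in 3% DCC-FBS medium. Unstimulated and stimulated wells served as negative and positive controls.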
# MDA-MB-231 = test: Cell growth inhibition assay, breast cancer cell line MDA-MB-231; settings: Homo sapiens; MDA-MB-231 breast cancer cell line, 5,000 cells/well
# Protocol: The inhibitory effects of the compounds of the present invention against the growth of cancer cells were evaluated as shown below. The cancer cell lines including stomach cancer cell line (AGS), breast cancer cell lines (MDA-MB-231, MDA-MB-468, and BT-549), prostate cancer cell lines (LNCaP and DU-145), colon cancer cell line (HCT116), ovarian cancer cell line (SW626), liver cancer cell line (Hep3B), kidney cancer cell line (ACHN), lung cancer cell line (NCI-H23) and blood cancer cell lines (HEL92.1.7 and U266) were cultured under the protocol provided by each supplier. A medium supplemented with 10 ng/mL of IL-6 was used for LNCaP, a prostate cancer cell line, when treated with a drug. Each type of cells to be used in experiments were sub-cultured in a 96-well plate by counting the exact number of cells using Tali™ Image-based Cytometer (Life Technologies). In a 96-well plate, AGS, HCT116, and DU-145 were employed with 3,000 cells/well; NCI-H23, SW626, Hep3B, ACHN, BT-549, MDA-MB-231, HEL92.1.7, and U266 were employed with 5,000 cells/well; and LNCaP and MDA-MB-468 were employed with 10,000 cells/well. The cells were treated with the compounds listed in Examples which were diluted in various concentrations. Upon completion of the compounds treatment, AGS, HCT116, SW626, DU145, NCI-H23, Hep3B, ACHN, BT-549, LNCaP, HEL92.1.7, and U266 cells were cultured at 37° C. under 5% CO2 for from 72 to 96 hours, and MDA-MB-231 and MDA-MB-468 cells were cultured at 37° C. in air for from 72 to 96 hours. Subsequently, the cells were observed under microscope and drug precipitation and particular findings were investigated and recorded. And then, the 96-well plate was placed at room temperature for 30 minutes, added with 20 μL/well of CellTiter-Glo solution (Cat No. G7573, Promega) and shaken for 10 minutes, followed by being subjected to the measurement using PHERAstar™ microplate reader (BMG LABTECH) according to the supplier's general luminometer protocol. Wells where only culture liquid added without cell plating were used as a negative control, whereas wells where culture liquid containing 0.1% DMSO instead of the compounds listed in Examples were used as a positive control.
# LNCaP = test: Cell growth inhibition assay, prostate cancer cell line LNCaP (medium with 10 ng/mL IL-6); settings: Homo sapiens, medium supplemented with 10 ng/mL of IL-6, 10,000 cells/well
# DU-145 = test: Cell growth inhibition assay, prostate cancer cell line DU-145; settings: Homo sapiens, DU-145 prostate cancer cell line
# In short: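 Luminescent CellTiter-Glo readout of viable cells after 72–96 h compound exposure (37° C., 5% CO2). Seeding: 3,000 cells/well for DU-145 and HCT116, 5,000 cells/well for SW626. Controls were medium without cells and 0.1% DMSO vehicle.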
# T1 sequence (P40763 whole entry): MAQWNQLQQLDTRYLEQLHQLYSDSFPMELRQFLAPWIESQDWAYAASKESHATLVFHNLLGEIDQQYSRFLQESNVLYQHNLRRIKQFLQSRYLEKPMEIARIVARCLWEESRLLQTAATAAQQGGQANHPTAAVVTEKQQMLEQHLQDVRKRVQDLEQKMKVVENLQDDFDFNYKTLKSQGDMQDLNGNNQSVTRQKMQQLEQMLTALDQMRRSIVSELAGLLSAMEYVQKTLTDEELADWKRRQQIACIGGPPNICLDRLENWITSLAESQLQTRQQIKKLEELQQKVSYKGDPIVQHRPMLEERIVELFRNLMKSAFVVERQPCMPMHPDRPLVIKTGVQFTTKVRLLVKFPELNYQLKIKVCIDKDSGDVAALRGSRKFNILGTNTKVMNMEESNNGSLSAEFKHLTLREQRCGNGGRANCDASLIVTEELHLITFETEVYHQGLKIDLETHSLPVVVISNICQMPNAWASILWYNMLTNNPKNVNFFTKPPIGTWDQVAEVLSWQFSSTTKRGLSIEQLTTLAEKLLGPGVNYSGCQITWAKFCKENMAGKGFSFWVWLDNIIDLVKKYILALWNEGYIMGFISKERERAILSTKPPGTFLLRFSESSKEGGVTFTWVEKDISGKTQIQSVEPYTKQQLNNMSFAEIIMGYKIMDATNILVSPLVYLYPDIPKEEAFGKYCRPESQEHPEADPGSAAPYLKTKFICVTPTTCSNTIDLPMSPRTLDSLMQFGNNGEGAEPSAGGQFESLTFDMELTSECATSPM
SMILES,IC50 (STAT3) [µM],IC50 (MDA-MB-231) [µM],IC50 (LNCaP) [µM],IC50 (DU-145) [µM]
"CC(C)(c1ccc(F)cc1)c1cccc(NC(=O)c2cc3ccc(NS(C)(=O)=O)cc3[nH]2)c1 [Example 1, N-(3-(2-(4-fluorophenyl)propan-2-yl)phenyl)-6-(methylsulfonamido)-1H-indole-2-carboxamide]",0.19,0.23,2.5,–
"CC(C)(c1ccccc1)c1cccc(NC(=O)c2cc3ccc(NS(C)(=O)=O)cc3[nH]2)c1 [Example 2, 6-(methylsulfonamido)-N-(3-(2-phenylpropan-2-yl)phenyl)-1H-indole-2-carboxamide]",0.2,0.14,5.3,–
"COc1cc2cc(C(=O)Nc3cccc(C(C)(C)c4ccc(F)cc4)c3)[nH]c2cc1NS(C)(=O)=O [Example 3, N-(3-(2-(4-fluorophenyl)propan-2-yl)phenyl)-5-methoxy-6-(methylsulfonamido)-1H-indole-2-carboxamide]",0.22,0.09,1.1,–
"COc1cc(NC(=O)c2cc3ccc(NS(C)(=O)=O)cc3[nH]2)cc(C(C)(C)c2cccc(OC(F)(F)F)c2)c1 [Example 4, N-(3-methoxy-5-(2-(3-(trifluoromethoxy)phenyl)propan-2-yl)phenyl)-6-(methylsulfonamido)-1H-indole-2-carboxamide]",0.34,0.052,0.82,–
"CNS(=O)(=O)Nc1ccc2cc(C(=O)Nc3cccc(C(C)(C)c4ccc(F)cc4)c3)[nH]c2c1 [Example 5, N-(3-(2-(4-fluorophenyl)propan-2-yl)phenyl)-6-((N-methylsulfamoyl)amino)-1H-indole-2-carboxamide]",1.2,1.2,4.7,–
"CC(C)(c1ccc(F)cc1)c1cccc(NC(=O)c2cc3ccc(S(C)(=O)=O)cc3[nH]2)c1 [Example 6, N-(3-(2-(4-fluorophenyl)propan-2-yl)phenyl)-6-(methylsulfonyl)-1H-indole-2-carboxamide]",> 10,> 10,> 10,–
"CC(C)(c1cccc(NC(=O)c2cc3ccc(NS(C)(=O)=O)cc3[nH]2)c1)c1ccccc1F [Example 7, N-(3-(2-(2-fluorophenyl)propan-2-yl)phenyl)-6-(methylsulfonamido)-1H-indole-2-carboxamide]",0.31,0.35,2.4,–
"CC(C)(c1cccc(NC(=O)c2cc3ccc(NS(C)(=O)=O)cc3[nH]2)c1)c1cccc(OC(F)(F)F)c1 [Example 8, 6-(methylsulfonamido)-N-(3-(2-(3-(trifluoromethoxy)phenyl)propan-2-yl)phenyl)-1H-indole-2-carboxamide]",0.12,0.018,0.87,–
"COc1cc(OC(F)(F)F)cc(C(C)c2cccc(NC(=O)c3cc4ccc(NS(C)(=O)=O)cc4[nH]3)c2)c1 (stereo not drawn) [Example 10, N-(3-(1-(3-methoxy-5-(trifluoromethoxy)phenyl)ethyl)phenyl)-6-(methylsulfonamido)-1H-indole-2-carboxamide]",0.43,0.18,1.7,–
"CC(C)(c1cccc(NC(=O)c2cc3ccc(NS(C)(=O)=O)cc3[nH]2)c1)c1ccc(F)cc1F [Example 11, N-(3-(2-(2,4-difluorophenyl)propan-2-yl)phenyl)-6-(methylsulfonamido)-1H-indole-2-carboxamide]",0.2,0.06,1.8,–
"COc1cccc(C(C)(C)c2cccc(NC(=O)c3cc4ccc(NS(C)(=O)=O)cc4[nH]3)c2)c1 [Example 12, N-(3-(2-(3-methoxyphenyl)propan-2-yl)phenyl)-6-(methylsulfonamido)-1H-indole-2-carboxamide]",0.26,0.034,1.4,–
"COc1cc(NC(=O)c2cc3ccc(NS(C)(=O)=O)cc3[nH]2)cc(C(C)(C)c2cc(OC)cc(OC(F)(F)F)c2)c1 [Example 13, N-(3-methoxy-5-(2-(3-methoxy-5-(trifluoromethoxy)phenyl)propan-2-yl)phenyl)-6-(methylsulfonamido)-1H-indole-2-carboxamide]",0.22,0.03,0.48,–
"CC(C)(c1ccc(F)cc1)c1cc(Br)cc(NC(=O)c2cc3ccc(NS(C)(=O)=O)cc3[nH]2)c1 [Example 14, N-(3-bromo-5-(2-(4-fluorophenyl)propan-2-yl)phenyl)-6-(methylsulfonamido)-1H-indole-2-carboxamide]",0.13,0.062,0.55,–
"CS(=O)(=O)Nc1cc2cc(C(=O)Nc3cc(Cl)cc(Oc4ccc(F)c(F)c4)c3)sc2cc1Cl [Example 481, 6-chloro-N-(3-chloro-5-(3,4-difluorophenoxy)phenyl)-5-(methylsulfonamido)benzo[b]thiophene-2-carboxamide]",0.015,–,0.036,0.008
"CS(=O)(=O)Nc1cc2cc(C(=O)Nc3cc(Cl)cc(Oc4ccc(C(F)(F)F)cc4)c3)sc2cc1Cl [Example 482, 6-chloro-N-(3-chloro-5-(4-(trifluoromethyl)phenoxy)phenyl)-5-(methylsulfonamido)benzo[b]thiophene-2-carboxamide]",0.016,–,0.013,0.005
"CS(=O)(=O)Nc1cc2cc(C(=O)Nc3cc(Cl)cc(Oc4cc(F)cc(Cl)c4)c3)sc2cc1Cl [Example 483, 6-chloro-N-(3-chloro-5-(3-chloro-5-fluorophenoxy)phenyl)-5-(methylsulfonamido)benzo[b]thiophene-2-carboxamide]",0.014,–,0.02,0.01
"COc1cc(F)cc(Oc2cc(Cl)cc(NC(=O)c3cc4cc(NS(C)(=O)=O)c(Cl)cc4s3)c2)c1 [Example 484, 6-chloro-N-(3-chloro-5-(3-fluoro-5-methoxyphenoxy)phenyl)-5-(methylsulfonamido)benzo[b]thiophene-2-carboxamide]",0.021,–,0.037,0.021
"CS(=O)(=O)Nc1cc2sc(C(=O)Nc3cc(Cl)cc(Oc4ccc(Cl)cc4)c3)cc2cc1Cl [Example 485, 5-chloro-N-(3-chloro-5-(4-chlorophenoxy)phenyl)-6-(methylsulfonamido)benzo[b]thiophene-2-carboxamide]",0.129,–,> 1.1,0.38
"CS(=O)(=O)Nc1cc2cc(C(=O)Nc3cc(Cl)cc(OC4CCCCC4)c3)sc2cc1Cl [Example 486, 6-chloro-N-(3-chloro-5-(cyclohexyloxy)phenyl)-5-(methylsulfonamido)benzo[b]thiophene-2-carboxamide]",0.11,–,0.083,0.048
"Cc1ccc(Oc2cc(Cl)cc(NC(=O)c3cc4cc(NS(C)(=O)=O)c(Cl)cc4s3)c2)s1 [Example 487, 6-chloro-N-(3-chloro-5-((5-methylthiophen-2-yl)oxy)phenyl)-5-(methylsulfonamido)benzo[b]thiophene-2-carboxamide]",0.059,–,0.036,0.025
"Cc1cc(OC(C)C)cc(C(C)(C)c2cc(Cl)cc(NC(=O)c3cc4c(Br)c(NS(C)(=O)=O)ccc4s3)c2)c1 [Example 488, 4-bromo-N-(3-chloro-5-(2-(3-isopropoxy-5-methylphenyl)propan-2-yl)phenyl)-5-(methylsulfonamido)benzo[b]thiophene-2-carboxamide]",0.35,–,2.5,1.1
"CS(=O)(=O)Nc1ccc2sc(C(=O)Nc3cc(Cl)nc(Oc4ccc(Cl)cc4)c3)cc2c1 [Example 489, N-(2-chloro-6-(4-chlorophenoxy)pyridin-4-yl)-5-(methylsulfonamido)benzo[b]thiophene-2-carboxamide]",0.11,–,0.11,0.031
